Each structure is given as a SMILES string.

For one compound, Km results are on record in paper PMC8565777, “The chitinolytic activity of the Curtobacterium sp. isolated from field-grown soybean and analysis of its genome sequence” (PLoS ONE, 2021).

In this test the test system is T1, GH18 chitinase from Curtobacterium sp. GD1 (carbohydrate binding protein, CBP).
T1 construct: native secreted enzyme, partially purified from chitin-induced culture supernatant (two major bands); 429 aa precursor, predicted 31 aa signal peptide removed; genome has 3 GH18 genes
The test can be described thus: colorimetric p-nitrophenol release at […] nm, Lineweaver-Burk. To be noted: 100 mmol/L sodium phosphate pH 7.0, 37 °C, partially purified enzyme; substrate range 3-90 mmol/L; substrate of the Km not restated beside the value; unit printed as mmol (mmol/L presumably meant). Format: biochemical.

Take `CC(=O)N[C@H]1[C@H](Oc2ccc([N+](=O)[O-])cc2)O[C@H](CO)[C@@H](O[C@@H]2O[C@H](CO)[C@@H](O[C@@H]3O[C@H](CO)[C@@H](O)[C@H](O)[C@H]3NC(C)=O)[C@H](O)[C@H]2NC(C)=O)[C@@H]1O` [p-nitrophenyl-β-D-N,N’,N”-triacetylchitotriose]: the Km turned out to be 10 mmol.
